Measured values as given in patent US20150064221A1, “COMPOUNDS HAVING IMMUNOMUDULATOR ACTIVITY” (priority 2012, published 2015).

How the values were obtained:
[1] = system: splenic mononuclear cells (SMNC); experiment: In vitro proliferation and cytokine synthesis of splenic mononuclear cells; type: cell-based, mice
Excerpt: Peritoneal macrophages (PM) and splenic mononuclear cells (SMNC) were isolated from normal mice, cultured in nutrient medium and stimulated with LPS and/or ConA in the absence or presence of VGX-1027. […] VGX-1027 had no effect on MIF expression in either cell type, on proliferation of SMNC, and on IL-10 and Interferon (IFN) γ production by SMNC.

PBMCs = experiment: Transcriptional profile analysis (microarray) of LPS-stimulated PBMCs; type: cell-based, human; parameters: mean/difference of means: scale not given here; details: for mean/difference of means: VGX-treated vs LPS stimulated group
Method: Transcriptional profile analysis: PBMCs from three individual healthy donors, obtained from the University of Pennsylvania School of Medicine, Immunology Clinical Core. Cells (5×10̂6) were treated with either LPS (5 μg/ml), LPS (5 μg/ml)+VGX-1027 (10 uM) or PBS for 48 hours and subsequently, RNA was extracted using the RNeasy kit (Qiagen) following manufacturer's instructions.
RNA was hybridized to the Human Gene 1.0 ST array (Affymetrix). Microarray data were analyzed using the web-based utility Expression Profiler (http://www.ebi.ac.uk/expressionprofiler/). Data normalization was achieved by performing logarithmic transformation of all intensities followed by gene mean-centering. Multiple array probes were collapsed by averaging the intensities. Principal component analysis (PCA) was conducted on all genes to assign the general variability in the data to a reduced set of variables. Gene expression differences were assessed by means of Student's t test, and genes with a p<0.01 were considered differentially expressed. Selected genes were subjected to K-means clustering, using Euclidean distance as correlation measurement, and gene ontology (GO) analysis was performed using the Database for Annotation, Visualization and Integrated Discovery (DAVID) tool. Hierarchical clustering of selected genes was performed using Euclidean distance measurements as similarity comparison.

Q: For `O=C(O)CC1CC(c2ccccc2)=NO1` (centres unmarked) [VGX-1027, 3-phenyl-4,5-dihydro-5-isoxazoleacetic acid], which IL-10 production [1] is on record?
A: no effect

Q: And the “Interferon (IFN) γ production” value [1]?
A: no effect

Q: What about the MIF expression [1] of the same compound?
A: no effect

Q: What about the proliferation [1] of the same compound?
A: no effect

Q: And the TNF-α production ([1]; LPS and/or ConA stimulated)?
A: markedly inhibited

Q: What about the “genes in cluster strongly downregulated upon treatment” value (PBMCs; K-means clustering) of the same compound?
A: 525

Q: What about the “genes modulated relative to LPS” value (PBMCs; LPS 5 μg/ml + 10 uM, 48 hours) of the same compound?
A: 895

Q: What about the mean/difference of means (PBMCs; gene 7912155, most down-regulated genes) of the same compound?
A: 0.111

Q: And the mean/difference of means (PBMCs; gene 7923965, most down-regulated genes)?
A: 0.439

Q: What about the mean/difference of means (PBMCs; gene 7945084, most down-regulated genes) of the same compound?
A: 0.165

Q: What about the mean/difference of means (PBMCs; gene 7997245, most up-regulated genes) of the same compound?
A: −0.0599

Q: And the mean/difference of means (PBMCs; gene 8007069, most down-regulated genes)?
A: 0.074

Q: What about the mean/difference of means (PBMCs; gene 8017100, most down-regulated genes) of the same compound?
A: 0.108

Q: And the mean/difference of means (PBMCs; gene 8028281, most down-regulated genes)?
A: 0.0791

Q: What about the mean/difference of means (PBMCs; gene 8043441, most up-regulated genes) of the same compound?
A: −0.406

Q: And the mean/difference of means (PBMCs; gene 8077169, most down-regulated genes)?
A: 0.153

Q: And the mean/difference of means (PBMCs; gene 8094946, most down-regulated genes)?
A: 0.07

Q: And the mean/difference of means (PBMCs; gene 8102775, most down-regulated genes)?
A: 0.101

Q: What about the mean/difference of means (PBMCs; gene 8104068, most down-regulated genes) of the same compound?
A: 0.118

Q: And the mean/difference of means (PBMCs; gene 8134024, most down-regulated genes)?
A: 0.0796

Q: What about the mean/difference of means (PBMCs; gene 8135943, most down-regulated genes) of the same compound?
A: 0.406

Q: And the mean/difference of means (PBMCs; gene 8136446, most up-regulated genes)?
A: −0.146

Q: What about the mean/difference of means (PBMCs; gene 8140035, most down-regulated genes) of the same compound?
A: 0.388

Q: What about the mean/difference of means (PBMCs; gene 8150101, most up-regulated genes) of the same compound?
A: −0.237

Q: What about the mean/difference of means (PBMCs; gene 8153835, most down-regulated genes) of the same compound?
A: 0.0829

Q: What about the mean/difference of means (PBMCs; gene 8160555, most down-regulated genes) of the same compound?
A: 0.171

Q: What about the mean/difference of means (PBMCs; gene ADAM19, most up-regulated genes) of the same compound?
A: −0.176

Q: And the mean/difference of means (PBMCs; gene AIM2, most up-regulated genes)?
A: −0.221

Q: And the mean/difference of means (PBMCs; gene ALKBH5, most down-regulated genes)?
A: 0.0698

Q: And the mean/difference of means (PBMCs; gene APOBEC3G, most up-regulated genes)?
A: −0.239

Q: What about the mean/difference of means (PBMCs; gene ATXN10, most up-regulated genes) of the same compound?
A: −0.131

Q: What about the mean/difference of means (PBMCs; gene BLNK, most up-regulated genes) of the same compound?
A: −0.398

Q: What about the mean/difference of means (PBMCs; gene BOLA3, most up-regulated genes) of the same compound?
A: −0.118

Q: And the mean/difference of means (PBMCs; gene C1orf2, most down-regulated genes)?
A: 0.106

Q: And the mean/difference of means (PBMCs; gene C11orf53, most down-regulated genes)?
A: 0.184

Q: And the mean/difference of means (PBMCs; gene C20orf173, most down-regulated genes)?
A: 0.14

Q: What about the mean/difference of means (PBMCs; gene CABYR, most down-regulated genes) of the same compound?
A: 0.135

Q: What about the mean/difference of means (PBMCs; gene CCKBR, most down-regulated genes) of the same compound?
A: 0.0588

Q: What about the mean/difference of means (PBMCs; gene CCL8, most up-regulated genes) of the same compound?
A: −1.08

Q: What about the mean/difference of means (PBMCs; gene CD22, most up-regulated genes) of the same compound?
A: −0.453

Q: What about the mean/difference of means (PBMCs; gene CD38, most up-regulated genes) of the same compound?
A: −0.468

Q: And the mean/difference of means (PBMCs; gene CHML, most up-regulated genes)?
A: −0.24

Q: And the mean/difference of means (PBMCs; gene CIZ1, most down-regulated genes)?
A: 0.0416

Q: What about the mean/difference of means (PBMCs; gene CLIC5, most up-regulated genes) of the same compound?
A: −0.175

Q: What about the mean/difference of means (PBMCs; gene CLU, most up-regulated genes) of the same compound?
A: −0.218

Q: What about the mean/difference of means (PBMCs; gene CPA3, most up-regulated genes) of the same compound?
A: −0.669

Q: What about the mean/difference of means (PBMCs; gene CYTH1, most down-regulated genes) of the same compound?
A: 0.0452

Q: And the mean/difference of means (PBMCs; gene DNAH1, most up-regulated genes)?
A: −0.134

Q: What about the mean/difference of means (PBMCs; gene EDN2, most down-regulated genes) of the same compound?
A: 0.0391

Q: And the mean/difference of means (PBMCs; gene EGR4, most down-regulated genes)?
A: 0.129

Q: And the mean/difference of means (PBMCs; gene EOMES, most up-regulated genes)?
A: −0.0887

Q: And the mean/difference of means (PBMCs; gene ETNK2, most down-regulated genes)?
A: 0.278

Q: And the mean/difference of means (PBMCs; gene FAM108C1, most down-regulated genes)?
A: 0.0544

Q: And the mean/difference of means (PBMCs; gene FAS, most up-regulated genes)?
A: −0.12

Q: And the mean/difference of means (PBMCs; gene FCRL1, most up-regulated genes)?
A: −0.301

Q: What about the mean/difference of means (PBMCs; gene FNBP1L, most down-regulated genes) of the same compound?
A: 0.203

Q: And the mean/difference of means (PBMCs; gene FUK, most down-regulated genes)?
A: 0.0866

Q: What about the mean/difference of means (PBMCs; gene GATAD1, most down-regulated genes) of the same compound?
A: 0.0258

Q: What about the mean/difference of means (PBMCs; gene GEN1, most up-regulated genes) of the same compound?
A: −0.368

Q: And the mean/difference of means (PBMCs; gene GGTLC2, most down-regulated genes)?
A: 0.179

Q: What about the mean/difference of means (PBMCs; gene HAGH, most down-regulated genes) of the same compound?
A: 0.0712

Q: And the mean/difference of means (PBMCs; gene HISPPD2A, most down-regulated genes)?
A: 0.0217

Q: And the mean/difference of means (PBMCs; gene HSPA12B, most down-regulated genes)?
A: 0.0281

Q: And the mean/difference of means (PBMCs; gene KARS, most up-regulated genes)?
A: −0.126

Q: And the mean/difference of means (PBMCs; gene KCTD10, most up-regulated genes)?
A: −0.0613

Q: And the mean/difference of means (PBMCs; gene KLF3, most down-regulated genes)?
A: 0.115

Q: What about the mean/difference of means (PBMCs; gene KLF10, most up-regulated genes) of the same compound?
A: −0.11

Q: What about the mean/difference of means (PBMCs; gene KLHDC4, most up-regulated genes) of the same compound?
A: −0.0727

Q: What about the mean/difference of means (PBMCs; gene LARS2, most up-regulated genes) of the same compound?
A: −0.176

Q: And the mean/difference of means (PBMCs; gene LCP2, most up-regulated genes)?
A: −0.0536

Q: What about the mean/difference of means (PBMCs; gene LRRC8D, most down-regulated genes) of the same compound?
A: 0.139

Q: What about the mean/difference of means (PBMCs; gene LYRM4, most up-regulated genes) of the same compound?
A: −0.294

Q: And the mean/difference of means (PBMCs; gene MAGOH, most up-regulated genes)?
A: −0.1

Q: What about the mean/difference of means (PBMCs; gene MOV10L1, most down-regulated genes) of the same compound?
A: 0.0753

Q: And the mean/difference of means (PBMCs; gene MRPL15, most up-regulated genes)?
A: −0.147

Q: And the mean/difference of means (PBMCs; gene MRPS35, most up-regulated genes)?
A: −0.164

Q: What about the mean/difference of means (PBMCs; gene NDUFA4, most up-regulated genes) of the same compound?
A: −0.0638

Q: And the mean/difference of means (PBMCs; gene NLN, most up-regulated genes)?
A: −0.217

Q: And the mean/difference of means (PBMCs; gene OAS3, most up-regulated genes)?
A: −0.134

Q: What about the mean/difference of means (PBMCs; gene OFCC1, most down-regulated genes) of the same compound?
A: 0.0379

Q: And the mean/difference of means (PBMCs; gene PAH, most down-regulated genes)?
A: 0.0906

Q: And the mean/difference of means (PBMCs; gene PAK1IP1, most up-regulated genes)?
A: −0.271

Q: And the mean/difference of means (PBMCs; gene PGDS, most up-regulated genes)?
A: −0.708

Q: What about the mean/difference of means (PBMCs; gene RGS1, most up-regulated genes) of the same compound?
A: −0.294

Q: What about the mean/difference of means (PBMCs; gene RPE, most up-regulated genes) of the same compound?
A: −0.116

Q: And the mean/difference of means (PBMCs; gene SERPINI1, most down-regulated genes)?
A: 0.187

Q: And the mean/difference of means (PBMCs; gene SH3PXD2A, most down-regulated genes)?
A: 0.0515

Q: And the mean/difference of means (PBMCs; gene SLC38A2, most down-regulated genes)?
A: 0.0979

Q: And the mean/difference of means (PBMCs; gene SNORA24, most up-regulated genes)?
A: −0.212

Q: And the mean/difference of means (PBMCs; gene SNRNP70, most down-regulated genes)?
A: 0.0617

Q: What about the mean/difference of means (PBMCs; gene SNX6, most up-regulated genes) of the same compound?
A: −0.0607

Q: What about the mean/difference of means (PBMCs; gene SPAG7, most up-regulated genes) of the same compound?
A: −0.149

Q: And the mean/difference of means (PBMCs; gene SRFBP1, most up-regulated genes)?
A: −0.124

Q: And the mean/difference of means (PBMCs; gene TCL1A, most up-regulated genes)?
A: −0.442

Q: And the mean/difference of means (PBMCs; gene TNFRSF17, most up-regulated genes)?
A: −0.295

Q: And the mean/difference of means (PBMCs; gene TRABD, most down-regulated genes)?
A: 0.0439

Q: And the mean/difference of means (PBMCs; gene TSN, most up-regulated genes)?
A: −0.105

Q: What about the mean/difference of means (PBMCs; gene TUSC3, most down-regulated genes) of the same compound?
A: 0.0955

Q: What about the mean/difference of means (PBMCs; gene TXNRD1, most down-regulated genes) of the same compound?
A: 0.117

Q: And the mean/difference of means (PBMCs; gene UAP1L1, most down-regulated genes)?
A: 0.0398

Q: And the mean/difference of means (PBMCs; gene VIPR1, most down-regulated genes)?
A: 0.123

Q: What about the mean/difference of means (PBMCs; gene WARS2, most up-regulated genes) of the same compound?
A: −0.246

Q: What about the mean/difference of means (PBMCs; gene WDR70, most up-regulated genes) of the same compound?
A: −0.0908

Q: And the mean/difference of means (PBMCs; gene YPEL2, most down-regulated genes)?
A: 0.183

Q: And the mean/difference of means (PBMCs; gene ZNF596, most up-regulated genes)?
A: −0.432

Q: And the mean/difference of means (PBMCs; gene ZNF746, most down-regulated genes)?
A: 0.0386

Q: What about the mean/difference of means (PBMCs; gene hCG_2024410, most up-regulated genes) of the same compound?
A: −0.102
